Assay results from PubChem BioAssay AID330 (DTP/NCI, 2004).
“And” between values parts separate entries of the source, which are not always exact repeats. Equal entries are not always repeated. Toxic doses and inconclusive results are not listed. How the source made its calls: active means survival T/C of 150% or more; inactive means T/C below 125% in these data.

Tested on: P388 leukemia ip, CD2F1 mice, survival T/C
Test: NCI In Vivo Anticancer Drug Screen. Data for tumor model P388 Leukemia (intraperitoneal) in CD2F1 (CDF1) mice
Conditions: endpoint: median survival time, higher = longer survival
In short: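 Mice carrying the transplanted tumor received test compound or vehicle. Survival was recorded in each group, and the value is the treated-group measurement divided by that of the vehicle-treated control group.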

[1] = dose: 60.0 mg/kg/injection, schedule: Q01DX005 (ip), vehicle: saline with Tween-80
[2] = dose: 100.0 mg/kg/injection, schedule: Q04DX002 (ip), vehicle: Klucel (hydroxypropylcellulose) (HPC)
[3] = dose: 200.0 mg/kg/injection, schedule: Q04DX002 (ip), vehicle: Klucel (hydroxypropylcellulose) (HPC)
[4] = dose: 400.0 mg/kg/injection, schedule: Q04DX002 (ip), vehicle: Klucel (hydroxypropylcellulose) (HPC)
[5] = dose: 50.0 mg/kg/injection, schedule: Q01DX009 (ip), vehicle: saline with Tween-80
[6] = dose: 200.0 mg/kg/injection, schedule: Q01DX009 (ip), vehicle: saline with Tween-80
[7] = dose: 50.0 mg/kg/injection, schedule: Q01DX005 (ip), vehicle: Klucel (hydroxypropylcellulose) (HPC)
[8] = dose: 100.0 mg/kg/injection, schedule: Q01DX005 (ip), vehicle: Klucel (hydroxypropylcellulose) (HPC)
[9] = dose: 200.0 mg/kg/injection, schedule: Q01DX005 (ip), vehicle: Klucel (hydroxypropylcellulose) (HPC)
[10] = dose: 25.0 mg/kg/injection, schedule: Q01DX009 (ip), vehicle: Klucel (hydroxypropylcellulose) (HPC)
[11] = dose: 50.0 mg/kg/injection, schedule: Q01DX009 (ip), vehicle: Klucel (hydroxypropylcellulose) (HPC)
[12] = dose: 100.0 mg/kg/injection, schedule: Q01DX009 (ip), vehicle: Klucel (hydroxypropylcellulose) (HPC)
[13] = dose: 25.0 mg/kg/injection, schedule: Q01DX009 (ip), vehicle: saline with Tween-80
[14] = dose: 100.0 mg/kg/injection, schedule: Q01DX001 (ip), vehicle: Klucel (hydroxypropylcellulose) (HPC)
[15] = dose: 200.0 mg/kg/injection, schedule: Q01DX001 (ip), vehicle: Klucel (hydroxypropylcellulose) (HPC)
[16] = dose: 100.0 mg/kg/injection, schedule: Q01DX009 (ip), vehicle: saline with Tween-80
[17] = dose: 12.5 mg/kg/injection, schedule: Q01DX005 (ip), vehicle: saline
[18] = dose: 25.0 mg/kg/injection, schedule: Q01DX005 (ip), vehicle: saline
[19] = dose: 50.0 mg/kg/injection, schedule: Q01DX005 (ip), vehicle: saline
[20] = dose: 12.5 mg/kg/injection, schedule: Q01DX009 (ip), vehicle: water
[21] = dose: 25.0 mg/kg/injection, schedule: Q01DX009 (ip), vehicle: water
[22] = dose: 50.0 mg/kg/injection, schedule: Q01DX009 (ip), vehicle: water

Measured: T/C

Cc1c(N)nc(C(CC(N)=O)NCC(N)C(N)=O)nc1C(=O)NC(C(=O)NC(C)C(O)C(C)C(=O)NC(C(=O)NCCc1nc(-c2nc(C(=O)NCCCNC(C)c3ccccc3)cs2)cs1)C(C)O)C(OC1OC(CO)C(O)C(O)C1OC1OC(CO)C(O)C(OC(N)=O)C1O)c1cnc[nH]1 (stereo not drawn)
inactive: dose: 0.25 mg/kg/injection, schedule: Q01DX009 (ip), vehicle: water 104 % of control and 95 % of control | dose: 0.5 mg/kg/injection, schedule: Q01DX009 (ip), vehicle: water 100 % of control and 111 % of control and 88 % of control | dose: 1.0 mg/kg/injection, schedule: Q01DX009 (ip), vehicle: water 103 % of control and 104 % of control and 118 % of control | dose: 2.0 mg/kg/injection, schedule: Q01DX009 (ip), vehicle: water 100 % of control and 113 % of control | dose: 4.0 mg/kg/injection, schedule: Q01DX009 (ip), vehicle: water 114 % of control and 118 % of control | dose: 8.0 mg/kg/injection, schedule: Q01DX009 (ip), vehicle: water 100 % of control

Cc1c2c(c(C)c3c1C(=O)c1cc4c(cc1C3=O)OCO4)OC(C)(C)O2
inactive: [1] 89 % of control | dose: 120.0 mg/kg/injection, schedule: Q01DX005 (ip), vehicle: saline with Tween-80 94 % of control | dose: 240.0 mg/kg/injection, schedule: Q01DX005 (ip), vehicle: saline with Tween-80 100 % of control

O=C1C(N=Nc2ccccc2)C(O)N(c2ccc(Cl)cc2)C(=S)N1c1cccc(Cl)c1Cl (stereo not drawn)
inactive: [2] 100 % of control | [3] 100 % of control | [4] 99 % of control

CCCC1CN2CCc3cc(OC)c(OC)cc3C2C/C1=C/C(=O)OCC (stereo not drawn)
inactive: dose: 12.5 mg/kg/injection, schedule: Q01DX009 (ip), vehicle: saline 90 % of control | dose: 25.0 mg/kg/injection, schedule: Q01DX009 (ip), vehicle: saline 92 % of control | [5] 90 % of control | dose: 50.0 mg/kg/injection, schedule: Q01DX009 (ip), vehicle: saline 96 % of control | [6] 89 % of control

O=C1c2ccccc2C(=O)N1/N=[N+](\[O-])c1ccccc1
inactive: dose: 25.0 mg/kg/injection, schedule: Q01DX005 (ip), vehicle: Klucel (hydroxypropylcellulose) (HPC) 105 % of control | [7] 88 % of control | [8] 106 % of control | [9] 110 % of control

CC(=O)OCC1=CCCC1=O
inactive: [10] 111 % of control

CN(C)N1C(=O)C(c2ccccc2)(c2ccccc2)CSC1=S
inactive: [11] 108 % of control | [12] 100 % of control | dose: 200.0 mg/kg/injection, schedule: Q01DX009 (ip), vehicle: Klucel (hydroxypropylcellulose) (HPC) 101 % of control

CCCCOP(O)(=S)OCCCC.[Gd]
inactive: [13] 92 % of control | [5] 87 % of control and 98 % of control | [6] 86 % of control

Cn1cnc([N+](=O)[O-])c1SCC(N)C(=O)O (stereo not drawn)
inactive: [7] 94 % of control | [8] 94 % of control | [9] 94 % of control

O=C1OCCOCCSCCOCCOC(=O)c2cncc1c2
inactive: [14] 104 % of control | [15] 104 % of control | dose: 400.0 mg/kg/injection, schedule: Q01DX001 (ip), vehicle: Klucel (hydroxypropylcellulose) (HPC) 101 % of control

CC1=C(C)C2C(=O)NC(=O)NC12 (stereo not drawn)
inactive: [14] 100 % of control | [15] 91 % of control

CN(C)C12CCCCCC1S(=O)(=O)C2 (stereo not drawn)
inactive: [5] 94 % of control | [16] 94 % of control

O=C1C=CC(=Nc2cc(Br)c(O)c(Br)c2)C=C1
inactive: [17] 103 % of control | [18] 99 % of control | [19] 89 % of control and 95 % of control

CCOC(=O)c1cc(CC)sc1N
inactive: [16] 90 % of control | [6] 90 % of control

OC[C@@H]1CCCN2CCCC[C@H]12
inactive: dose: 6.2 mg/kg/injection, schedule: Q01DX007 (ip), vehicle: carboxymethylcellulose (CMC) 91 % of control | dose: 12.5 mg/kg/injection, schedule: Q01DX007 (ip), vehicle: carboxymethylcellulose (CMC) 91 % of control | dose: 25.0 mg/kg/injection, schedule: Q01DX007 (ip), vehicle: carboxymethylcellulose (CMC) 91 % of control

Cc1ccc(S(=O)(=O)Cl)cc1Cl
inactive: [13] 101 % of control | [5] 102 % of control | [16] 101 % of control

COc1cc(/C=C/c2ccc(N(C)C)cc2)oc(=O)c1
inactive: [2] 101 % of control | [3] 98 % of control | [4] 99 % of control

CCCCCCCCCCCCCCCC[N+](C)(C)CC[S+](C)C
inactive: [20] 96 % of control | [21] 99 % of control | [22] 100 % of control

COc1cc2ccc3cnccc3c2cc1OC
inactive: [20] 99 % of control | [21] 99 % of control | [22] 103 % of control | dose: 100.0 mg/kg/injection, schedule: Q01DX009 (ip), vehicle: water 99 % of control | dose: 200.0 mg/kg/injection, schedule: Q01DX009 (ip), vehicle: water 113 % of control

c1c2noc1CCCCCCCCC2
inactive: [7] 104 % of control | [8] 110 % of control | [9] 118 % of control

COc1ccc2ccc(C=O)cc2c1OC
inactive: dose: 25.0 mg/kg/injection, schedule: Q01DX009 (ip), vehicle: other 104 % of control | dose: 50.0 mg/kg/injection, schedule: Q01DX009 (ip), vehicle: other 95 % of control | dose: 100.0 mg/kg/injection, schedule: Q01DX009 (ip), vehicle: other 103 % of control | dose: 200.0 mg/kg/injection, schedule: Q01DX009 (ip), vehicle: other 97 % of control | dose: 400.0 mg/kg/injection, schedule: Q01DX009 (ip), vehicle: other 112 % of control

CC1=NN(C(=O)CC(=O)Nc2ccc(C(=O)O)cc2)C(=O)C1N=Nc1ccccc1C(=O)O (stereo not drawn)
inactive: dose: 50.0 mg/kg/injection, schedule: Q01DX005 (ip), vehicle: saline with Tween-80 110 % of control | dose: 100.0 mg/kg/injection, schedule: Q01DX005 (ip), vehicle: saline with Tween-80 111 % of control | dose: 200.0 mg/kg/injection, schedule: Q01DX005 (ip), vehicle: saline with Tween-80 110 % of control

C=CC1(C)CCC2C(=CCC3C2(C)CC(O)C(O)C3(C)COC2OC(C(=O)O)C(O)C(O)C2O)C1 (stereo not drawn) (tested in a mixture with another compound)
inactive: dose: 12.5 mg/kg/injection, schedule: Q01DX009 (ip), vehicle: Klucel (hydroxypropylcellulose) (HPC) 103 % of control | [10] 100 % of control | [11] 106 % of control | [12] 100 % of control

COc1cc(O)c2c(c1)C(=O)C1=C(C2=O)[C@@H](C)OC(C)C1 (stereo partly drawn)
inactive: dose: 15.0 mg/kg/injection, schedule: Q01DX005 (ip), vehicle: saline with Tween-80 94 % of control | dose: 30.0 mg/kg/injection, schedule: Q01DX005 (ip), vehicle: saline with Tween-80 96 % of control | [1] 88 % of control and 94 % of control

Cn1ccc(=O)n(C)c1=O
inactive: dose: 100.0 mg/kg/injection, schedule: Q04DX002 (ip), vehicle: saline 107 % of control | dose: 200.0 mg/kg/injection, schedule: Q04DX002 (ip), vehicle: saline 107 % of control | dose: 400.0 mg/kg/injection, schedule: Q04DX002 (ip), vehicle: saline 109 % of control

CN1CCN(c2ncc(S(=O)(=O)Cc3ccc(Cl)cc3)c(N)n2)CC1
inactive: dose: 100.0 mg/kg/injection, schedule: Q01DX001 (ip), vehicle: saline 95 % of control | dose: 200.0 mg/kg/injection, schedule: Q01DX001 (ip), vehicle: saline 98 % of control | dose: 400.0 mg/kg/injection, schedule: Q01DX001 (ip), vehicle: saline 98 % of control

C[n+]1c(-c2cccc(-c3ccccc3)c2)c2cc(N)ccc2c2ccccc21
inactive: dose: 1.56 mg/kg/injection, schedule: Q01DX009 (ip), vehicle: other 124 % of control

CCN(CC)CCCC(C)NC(=O)Nc1cc(OC)cc2cccnc12 (stereo not drawn)
inactive: [17] 107 % of control | [18] 108 % of control | [19] 104 % of control and 106 % of control
